SMILES strings stand for the structures. pIC50: −log10 of the molar value. Some results are limits rather than exact numbers.

As a reminder, the pIC50 is −log10 of the IC50, conventionally taken in molar units. The low end stands for a large IC50, the high end for a small IC50.

One assay has as its target SRPK1 (Homo sapiens, UniProt Q96SB4). The assay can be described thus: In vitro SRPK1 assay (Kinase-Glo). The class given is biochemical. In general terms: Kinase-Glo measures the ATP left after a reaction by luminescence.
The next assay deals with T1, CYP1A2 (Homo sapiens, UniProt P05177).
T1 construct: from tissue; host or cells: human liver microsomes
T1 sequence (P05177 1-516): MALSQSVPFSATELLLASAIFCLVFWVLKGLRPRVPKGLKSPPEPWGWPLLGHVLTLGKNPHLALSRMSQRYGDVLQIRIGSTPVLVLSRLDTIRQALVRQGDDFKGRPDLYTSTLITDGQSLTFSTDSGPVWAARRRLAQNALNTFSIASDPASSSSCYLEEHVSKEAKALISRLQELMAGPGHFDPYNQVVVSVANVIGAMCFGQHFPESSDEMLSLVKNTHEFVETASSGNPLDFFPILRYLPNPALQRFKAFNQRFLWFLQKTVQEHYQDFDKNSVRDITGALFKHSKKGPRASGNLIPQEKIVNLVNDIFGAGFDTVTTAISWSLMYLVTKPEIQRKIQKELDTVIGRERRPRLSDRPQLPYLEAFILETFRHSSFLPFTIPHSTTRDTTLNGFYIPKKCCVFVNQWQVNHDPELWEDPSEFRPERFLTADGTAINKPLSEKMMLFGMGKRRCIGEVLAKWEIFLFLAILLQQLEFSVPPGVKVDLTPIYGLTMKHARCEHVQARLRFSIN
The assay can be described thus: CYP inhibition assay, human liver microsomes, substrate tacrine. The following applies: human liver microsomes, 10 min incubation, LC-MS/MS; read-out: CYP Inhibition Activity (IC50/nM) CYP1A2. It counts as in vitro ADME. The essentials:
(§1)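 Test compound or positive inhibitor was combined with a pooled substrate mix and pre-incubated 20 min at 37 °C; reactions were started with pre-warmed NADPH and run 10 min at 37 °C. Cold acetonitrile stopped them, and supernatants were analysed by LC-MS/MS to derive % inhibition and IC50.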
(In general: Liver microsomes are vesicles of endoplasmic reticulum, rich in cytochrome P450 enzymes.)

Another assay has as its target T2, CYP2C9 (Homo sapiens, UniProt P11712).
T2 construct: from tissue; host or cells: human liver microsomes
The assay can be described thus: CYP inhibition assay, human liver microsomes, substrate diclofenac. The class given is in vitro ADME. The following applies: human liver microsomes, 10 min incubation, LC-MS/MS; read-out: CYP Inhibition Activity (IC50/nM) CYP2C9. The essentials: as §1

A further assay has as its target T3, CYP2C19 (Homo sapiens, UniProt P33261).
T3 construct: from tissue; host or cells: human liver microsomes
Briefly: CYP inhibition assay, human liver microsomes, substrate S-mephenytoin. The class given is in vitro ADME. The following applies: human liver microsomes, 10 min incubation, LC-MS/MS; read-out: CYP Inhibition Activity (IC50/nM) CYP2C19. The method in brief: as §1

The target in the next assay is T4, CYP2D6 (Homo sapiens, UniProt P10635).
T4 construct: from tissue; host or cells: human liver microsomes
Briefly: biochemical. It counts as in vitro ADME. The method in brief: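 Human liver microsomes (0.253 mg/mL working stock) pre-incubated with compound and substrate pool at 37° C for 20 min. Reaction started with NADPH and run 10 min at 37° C, stopped with cold ACN. Metabolite analysed by LC-MS/MS; % inhibition and IC50 calculated versus inhibitor-free control.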

The target in the next assay is T5, CYP3A4 (Homo sapiens, UniProt P08684).
T5 construct: from tissue; host or cells: human liver microsomes
Briefly: CYP inhibition assay, human liver microsomes, substrate midazolam. The following applies: human liver microsomes, 10 min incubation, LC-MS/MS; read-out: CYP Inhibition Activity (IC50/nM) CYP3A4. The class given is in vitro ADME. The method in brief: as §1

T4 sequence (P10635 whole entry): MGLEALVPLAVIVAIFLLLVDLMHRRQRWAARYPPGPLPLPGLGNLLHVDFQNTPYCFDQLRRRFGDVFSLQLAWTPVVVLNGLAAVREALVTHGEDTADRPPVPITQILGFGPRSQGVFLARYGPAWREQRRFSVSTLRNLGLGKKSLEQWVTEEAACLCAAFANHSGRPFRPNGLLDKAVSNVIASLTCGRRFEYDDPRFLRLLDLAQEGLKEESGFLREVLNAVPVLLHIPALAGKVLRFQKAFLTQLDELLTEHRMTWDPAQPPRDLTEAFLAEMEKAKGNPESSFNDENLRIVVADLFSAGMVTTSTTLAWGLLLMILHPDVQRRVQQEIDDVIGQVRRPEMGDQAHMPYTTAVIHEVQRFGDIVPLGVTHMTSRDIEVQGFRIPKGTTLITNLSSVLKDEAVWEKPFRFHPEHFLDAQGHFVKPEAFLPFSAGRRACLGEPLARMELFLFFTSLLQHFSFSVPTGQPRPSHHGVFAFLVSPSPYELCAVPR
T3 sequence (P33261 whole entry): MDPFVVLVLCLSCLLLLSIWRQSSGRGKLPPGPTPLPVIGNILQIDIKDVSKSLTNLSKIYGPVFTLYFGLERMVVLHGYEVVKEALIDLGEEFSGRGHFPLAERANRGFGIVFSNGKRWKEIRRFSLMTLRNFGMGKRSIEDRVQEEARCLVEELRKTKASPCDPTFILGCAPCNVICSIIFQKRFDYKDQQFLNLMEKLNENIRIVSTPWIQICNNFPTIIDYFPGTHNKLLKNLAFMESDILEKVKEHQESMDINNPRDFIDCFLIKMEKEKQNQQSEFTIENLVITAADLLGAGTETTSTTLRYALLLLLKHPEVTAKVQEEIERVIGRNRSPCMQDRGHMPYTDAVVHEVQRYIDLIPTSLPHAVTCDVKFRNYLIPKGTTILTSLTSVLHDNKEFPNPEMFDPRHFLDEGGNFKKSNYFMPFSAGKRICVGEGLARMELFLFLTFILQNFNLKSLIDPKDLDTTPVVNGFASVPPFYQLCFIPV
T2 sequence (P11712 whole entry): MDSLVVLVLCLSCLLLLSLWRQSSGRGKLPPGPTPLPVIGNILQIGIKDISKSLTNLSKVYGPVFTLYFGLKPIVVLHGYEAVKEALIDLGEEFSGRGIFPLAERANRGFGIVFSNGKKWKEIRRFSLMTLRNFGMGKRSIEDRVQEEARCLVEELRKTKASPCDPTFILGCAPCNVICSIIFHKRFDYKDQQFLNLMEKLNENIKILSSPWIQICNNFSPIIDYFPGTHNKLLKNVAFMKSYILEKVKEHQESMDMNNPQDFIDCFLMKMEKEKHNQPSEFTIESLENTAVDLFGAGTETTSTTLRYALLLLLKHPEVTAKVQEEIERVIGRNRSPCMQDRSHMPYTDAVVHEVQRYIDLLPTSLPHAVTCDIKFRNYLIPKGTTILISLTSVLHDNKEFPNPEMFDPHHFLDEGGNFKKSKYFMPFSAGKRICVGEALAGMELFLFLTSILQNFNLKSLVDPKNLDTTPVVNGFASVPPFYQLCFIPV
Chain of SRPK1 (Q96SB4 whole entry, species assumed): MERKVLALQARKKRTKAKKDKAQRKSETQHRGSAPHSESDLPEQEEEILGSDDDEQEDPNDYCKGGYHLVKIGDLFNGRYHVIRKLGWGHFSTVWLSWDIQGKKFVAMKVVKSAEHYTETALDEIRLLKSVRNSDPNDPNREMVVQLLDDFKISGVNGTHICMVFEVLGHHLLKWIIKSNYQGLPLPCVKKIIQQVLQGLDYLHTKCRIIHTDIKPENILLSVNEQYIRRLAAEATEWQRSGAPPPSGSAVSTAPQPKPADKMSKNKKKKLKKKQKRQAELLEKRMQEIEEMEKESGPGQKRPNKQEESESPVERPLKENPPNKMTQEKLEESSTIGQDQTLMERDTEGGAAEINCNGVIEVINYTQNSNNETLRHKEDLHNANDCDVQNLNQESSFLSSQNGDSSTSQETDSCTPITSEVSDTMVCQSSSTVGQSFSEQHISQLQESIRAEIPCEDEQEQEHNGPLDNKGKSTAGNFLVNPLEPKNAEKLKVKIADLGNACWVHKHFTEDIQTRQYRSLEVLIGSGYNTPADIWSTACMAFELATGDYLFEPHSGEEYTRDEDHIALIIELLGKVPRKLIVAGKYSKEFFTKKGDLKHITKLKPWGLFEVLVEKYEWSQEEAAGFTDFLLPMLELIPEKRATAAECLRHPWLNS
T5 sequence (P08684 whole entry): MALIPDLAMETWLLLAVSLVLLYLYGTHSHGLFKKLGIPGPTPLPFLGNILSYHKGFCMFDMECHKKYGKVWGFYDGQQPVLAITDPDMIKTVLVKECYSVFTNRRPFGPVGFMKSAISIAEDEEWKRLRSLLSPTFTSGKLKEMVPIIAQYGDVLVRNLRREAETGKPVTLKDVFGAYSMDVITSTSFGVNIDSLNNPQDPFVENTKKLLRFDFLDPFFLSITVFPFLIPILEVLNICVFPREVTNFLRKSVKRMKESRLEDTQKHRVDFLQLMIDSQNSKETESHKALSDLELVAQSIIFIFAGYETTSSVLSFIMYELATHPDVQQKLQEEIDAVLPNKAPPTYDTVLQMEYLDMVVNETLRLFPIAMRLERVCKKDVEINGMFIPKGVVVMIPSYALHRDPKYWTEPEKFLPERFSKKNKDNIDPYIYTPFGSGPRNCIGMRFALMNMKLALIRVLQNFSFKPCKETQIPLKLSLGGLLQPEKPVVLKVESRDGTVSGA

With `C[C@@]1(O)CCN(c2ccc(C(F)(F)F)cc2NC(=O)c2ccc(-c3ccncc3)o2)C1` [Example 52, (R)-N-(2-(3-hydroxy-3-methylpyrrolidin-1-yl)-5-(trifluoromethyl)phenyl)-5-(pyridin-4-yl)furan-2-carboxamide], the IC50 against SRPK1 turned out to be 216 nM; on CYP1A2, 4360 nM; on CYP2C9, 200 nM; on CYP2C19 it was 540 nM; at CYP3A4, 1190 nM. For the same compound, the negative-log IC50 (pIC50) against CYP2D6 is 6.82.

On to `C[C@]1(O)CCN(c2ccc(C(F)(F)F)cc2NC(=O)c2ccc(-c3ccncc3)o2)C1` [Example 53, (S)-N-(2-(3-hydroxy-3-methylpyrrolidin-1-yl)-5-(trifluoromethyl)phenyl)-5-(pyridin-4-yl)furan-2-carboxamide], for which the IC50 was determined as 169 nM against SRPK1; 2810 nM on CYP1A2; 450 nM at CYP2C9; 1190 nM at CYP2C19; 1330 nM at CYP3A4. The compound also had a negative logarithm of the IC50 (pIC50) against CYP2D6 of 8.00.

As for `O=C(Nc1cc(C2CC2)ccc1N1CCC(O)CC1)c1ccc(C2CCOCC2)o1` [Example 61, N-(5-cyclopropyl-2-(4-hydroxypiperidin-1-yl)phenyl)-5-(tetrahydro-2H-pyran-4-yl)furan-2-carboxamide], the IC50 is 1.2 nM against SRPK1; more than 30000 nM at CYP1A2; 7600 nM on CYP2C9; 10600 nM on CYP2C19; more than 30000 nM on CYP3A4. This compound gave a negative logarithm of the IC50 (pIC50) at CYP2D6 of less than 4.52.

With `O=C(Nc1cc(Cl)ccc1N1CCC(O)CC1)c1ccc(C2CCOCC2)o1` [Example 62, N-(5-chloro-2-(4-hydroxypiperidin-1-yl)phenyl)-5-(tetrahydro-2H-pyran-4-yl)furan-2-carboxamide], the IC50 on SRPK1 is 1.5 nM; at CYP1A2 it was more than 30000 nM; at CYP2C9, 11000 nM; on CYP2C19, 12200 nM; at CYP3A4 it was more than 30000 nM. This compound gave a pIC50 at CYP2D6 of 4.61.

With `Cc1ccc(N2CCC(C)(C)CC2)c(NC(=O)c2ccc(C3CCOCC3)o2)c1` [Example 63, N-(2-(4,4-dimethylpiperidin-1-yl)-5-methylphenyl)-5-(tetrahydro-2H-pyran-4-yl)furan-2-carboxamide], the IC50 on SRPK1 is 25 nM; on CYP1A2, more than 30000 nM; on CYP2C9, 14200 nM; at CYP2C19, more than 30000 nM; on CYP3A4, more than 30000 nM. For the same compound, at CYP2D6, the negative-log IC50 (pIC50) is less than 4.52.

In the case of `CC1(C)CCN(c2ccc(C3CC3)cc2NC(=O)c2ccc(C3CCOCC3)o2)CC1` [Example 64, N-(5-cyclopropyl-2-(4,4-dimethylpiperidin-1-yl)phenyl)-5-(tetrahydro-2H-pyran-4-yl)furan-2-carboxamide], the IC50 against SRPK1 is 5.6 nM; on CYP1A2, more than 30000 nM; at CYP2C9, 15800 nM; on CYP2C19 it was more than 30000 nM; on CYP3A4, more than 30000 nM. On CYP2D6, the negative-log IC50 (pIC50) is less than 4.52.

With `CC1(C)CCN(c2ccc(Cl)cc2NC(=O)c2ccc(C3CCOCC3)o2)CC1` [Example 65, N-(5-chloro-2-(4,4-dimethylpiperidin-1-yl)phenyl)-5-(tetrahydro-2H-pyran-4-yl)furan-2-carboxamide], the IC50 was 9.8 nM at SRPK1; more than 30000 nM at CYP1A2; 14000 nM on CYP2C9; more than 30000 nM at CYP2C19; more than 30000 nM at CYP3A4. For the same compound, the negative-log IC50 (pIC50) against CYP2D6 was less than 4.52.

For `Cc1ccc(N2CCC(C)(CO)CC2)c(NC(=O)c2ccc(C3CCOCC3)o2)c1` [Example 66, N-(2-(4-(hydroxymethyl)-4-methylpiperidin-1-yl)-5-methylphenyl)-5-(tetrahydro-2H-pyran-4-yl)furan-2-carboxamide], the IC50 on SRPK1 was 10 nM; at CYP1A2, more than 30000 nM; at CYP2C9, 2000 nM; on CYP2C19, 11400 nM; on CYP3A4, more than 30000 nM. For the same compound, the pIC50 against CYP2D6 is less than 4.52.

For the origin of these results see patent US11420969B2 (Exonate Limited, priority 2017, dated 2022).
